Data: patent US7534607B1, “Method of producing cardiomyocytes from mesenchymal stem cells” (Industrial Technology Research Institute, priority 2005, dated 2009)

Legend:
[1] = test system: embryonic stem cells (ESCs); conditions: ascorbic acid 0.01 mM; other antioxidants compared; Takahashi et al 2003; cited from earlier work
porcine mixed MSCs = assay: Cardio differentiation (myotube formation) of mixed MSCs by differentiation agents; format: cell-based; conditions: 4 weeks of culture, 5-azacytidine 3 μM, ascorbic acid 1 mM
Description: Porcine bone marrow mononucleated cells were purified according to a protocol described by Haynesworth et al (Haynesworth et al., (1992) Bone 13(1), 81-8). Briefly, bone marrows from posterior iliac crest bones of three 6-8 months old Lee-Sung miniature pigs (Luh et al., (2000) Transplantation 69(10), 2019-2027) ([…]) were aspirated into syringes that contained 6,000 unit heparin. The marrow samples were diluted in a ratio of 1:1 with HBSS (Gibco) and loaded onto 1.073 g/mL Ficoll solution (Amersham) in 50 mL centrifugations tubes and were centrifuged at 2,000 rpm for 40 min at room temperature. The mononucleated cells were collected from upper and interface layers, and washed with HBSS (Gibco) twice. Subsequently, the cells were cultured in αMEM (Hyclone) medium containing 100 unit/ml penicillin, 100 μg/ml streptomycin (Gibco) and 20% fetal bovine serum (FBS) from a selected lot (Gibco, Lot No.: 1149239) at 37° C. in humid air with 5% CO2. After a series of continuously cultures, the non-adhesive cells were removed by medium change. Porcine mixed mesenchymal stem cells (MSCs) thus obtained may be used directly in the differentiation experiment of example 1.3 and can be successfully propagated for at least 2 months. […]

[2] = test system: single BMSCs clones (fast-growing and slow-growing) and mixed MSCs; assay: Cardiogenic potential of mixed MSCs and single BMSCs clones under ascorbic acid; format: cell-based, porcine; conditions: 4 weeks
Description: The porcine mixed MSCs of example 1.1 were collected from upper and interface layers, and then seeded at limited dilution into culture. Briefly, 1×10^4 mononucleated cells were plated in each well of a 96-multiwell plate, washed with HBSS (Gibco) twice, and then cultured in αMEM (Hyclone) containing 20% FBS from selected lots at 37° C. in humid air with 5% CO2. Non-adhesive cells were removed by medium change and the number of the remaining cells attached to the bottom of culture wells was examined under the microscope. Clones from wells containing only a single cell attached were chosen for further study. The isolated cells were further cultured for 3 passages, and then frozen in liquid nitrogen until the differentiation studies.
For selecting the fast-growing single BMSCs clones, the nucleated cells were seeded onto 1,000 wells following limited dilution in culture (10^4 cells/well), and 120 clones, each of which was derived from a single attached cell in the well, were obtained. Morphologically, all of the clones comprised a relatively homogeneous population of fibroblast-like cells at subconfluence, while at confluence the cells appeared more polygonal and formed a tight packed monolayer.
To examine the cardiogenic potential of single BMSCs clones, mixed MSCs of example 1.1 and isolated single BMSCs clones of example 1.2 (both fast-growing clones of clones 1-4 and slow-growing clones of clones 5-8) were cultured in the presence of 1 mM ascorbic acid for 4 weeks, and one representative result was illustrated in FIG. 3. Before ascorbic acid treatment, there were no differences in terms of morphology among mixed population of MSCs (FIG. 3A), fast-growing clone No. 1 (FIG. 3B) and slow-growing clone No. 8 (FIG. 3C), respectively.

differentiated MSCs = assay: Myotube formation detected by immunohistochemistry (phallacidin / propidium iodide staining); format: cell-based, porcine; conditions: differentiated MSCs after ascorbic acid induction, confocal microscopy
Description: To further verify the myotube formation by ascorbic acid induction, the differentiated MSCs were stained with fluorescent phallacidin, which binds to F-actin, to reveal the formed myofibrils under phase contrast microscope (FIG. 4A) and fluorescence microscope (FIGS. 4B, 4C, and 4D), respectively. Briefly, the differentiated MSCs were washed three times with PBS for 3 minutes and the cells were then fixed with 4% paraformaldehyde for 15 min, and normalized with 0.1M glycine for 5 min, and permeabilized with 0.1% Tween 20 for 1 min. The myotube formation was confirmed by treating with alexa flour 488-conjugate phallacidin (Molecular Probes) for 20 min at room temperature. The cells were then washed two or more times with PBS. The multi-nucleate myotubes were stained by propidium iodide (Sigma) for 5 min at room temperature. After washing, they were mounted and observed under confocal laser scanning microscopy, and the multinucleated myotubes, which are one of the characteristics of fused myogenic cells, were detectable by propidium iodide staining (FIGS. 4B, 4C, and 4D).

[3] = test system: myogenic associated genes in MSCs; assay: RT-PCR of myogenic associated genes; format: cell-based, porcine
Description: (§1) The effect of ascorbic acid on the expression of myogenic associated genes and proteins were examined by Reverse-transcription polymerase chain reaction (RT-PCR) (FIG. 5) and western blot (FIG. 6), respectively.
RT-PCR Total RNA was extracted from differentiated MSCs using a RNA mini Kit (e.g., QIAGEN). Subsequently, cDNA was synthesized from 1 μg of extracted total RNA using a ThermoScript RT-PCR kit (Invitrogen). The PCR reaction was carried out with Taq DNA polymerase (Invitrogen). Reverse-transcription polymerase chain reaction (RT-PCR) of myogenic associated genes, including actin, alpha 1, skeletal muscle (ACTA), actin, alpha, cardiac muscle (ACTC) (Kubalak et al., (1994) J. Biol. Chem. 269(24), 16961-16970), mef-2c, mef-2d (Skerjanc et al., (1998) J. Biol. Chem. 273(52), 34904-34910), myogenin (Wright et al., (1989) Cell 56(4), 607-617), nkx2.5 (Lints et al., (1993) […]) and tef-1 (Chen et al., (1994) Genes Dev 8(19), 2293-2301), were performed on the differentiated cell samples (Table 1). The relative expression level of glyceraldehyde 3-phosphate dehydrogenase (GAPDH) was used as an internal control for each sample, and porcine heart and skeletal muscle cells were used as a positive control of differentiation pathway. A spectrophotometer (Amersham Bioscience) and Agilent 2100 Bioanalyzer (Agilent Technologies) were used to measure the total RNA of concentration and integrity, respectively. Results were illustrated in FIG. 5.

[4] = test system: cardiac troponin I in fast growing BMSC clones; assay: Western blot of cardiac troponin I and connexin43; format: cell-based, porcine; conditions: fast growing BMSC clone No. 1 treated with ascorbic acid
Description: as §1
Western Blot Total protein from the differentiated MSCs were extracted with cell lysis buffer (Pierce) containing 1× protease inhibitor cocktail (Roche). Protein concentration was determined by a Bio-Rad protein assay kit. Samples were boiled for 5 minutes and then subjected to 12.5% polyacrylamide gel electrophoresis. Proteins in gel were electrophoretically transferred to polyvinylidene diflouride membrane (PVDF, Millipore) at 4° C. for overnight in 25 mM Tris, 190 mM glycine (pH 8.3) containing 0.01% SDS and 10% methanol. The membrane was blocked with 5% non-fat milk to prevent nonspecific binding and then incubated with one of […] primary antibodies. Subsequently, the membrane was stained with primary antibodies that were against cardiac troponin I (at a dilution of 1:1000) and connexin43 (at a dilution of 1:2000) (Chemicon) (Makino et al., (1999) J. Clin. Invest. 103(5), 697-705), respectively, for 1 hour at room temperature. […] Bound antibodies were recognized by horseradish peroxidase-conjugated goat anti-mouse IgG and ECL reagent (Pierce), and detected by chemiluminescent detection.

[5] = background statement; cited from earlier work
[6] = MSCs after ascorbic acid treatment
[7] = over the course of differentiation

Molecule: vitamin E
- induction of differentiation of ESCs into cardiomyocytes [1]: not mimicked

Molecule: O=C1O[C@H]([C@@H](O)CO)C(O)=C1O [ascorbic acid]
- differentiation rate (formation of myotubes) (porcine mixed MSCs): ~25%
- morphology after ascorbic acid treatment ([2]; fast-growing clone No. 1, 1 mM ascorbic acid): started to form myotube-like structures from the third week
- morphology after ascorbic acid treatment ([2]; mixed MSCs, 1 mM ascorbic acid): started to form myotube-like structures from the third week
- morphology after ascorbic acid treatment ([2]; slow-growing clone No. 8, 1 mM ascorbic acid): retained a fibroblast-like morphology after 4 weeks
- multinucleated myotubes by propidium iodide staining (differentiated MSCs): detectable
- expression of ACTA gene [3, 6]: increased significantly
- expression of mef-2d gene [3, 6]: increased significantly
- expression of myogenin gene [3, 6]: increased significantly
- expression of ACTC gene [3, 7]: no significant change
- expression of mef-2c gene [3, 7]: no significant change
- expression of nkx2.5 gene [3, 7]: no significant change
- expression of cardiac troponin I protein [4]: expression of a heart specific protein, i.e., cardiac troponin 1
- induction of differentiation of ESCs into cardiomyocytes [1]: induction of differentiation of ESCs into cardiomyocytes

Molecule: O=S(=O)(O)c1cc(O)c(O)c(S(=O)(=O)O)c1 [Tiron]
- induction of differentiation of ESCs into cardiomyocytes [1]: not mimicked

Molecule: Nc1ncn([C@@H]2O[C@H](CO)[C@@H](O)[C@H]2O)c(=O)n1 [5-azacytidine]
- differentiation rate (formation of myotubes) (porcine mixed MSCs): about 10%
- cytotoxicity [5]: cytotoxic

Molecule: CC(=O)N[C@@H](CS)C(=O)O [N-acetylcysteine]
- induction of differentiation of ESCs into cardiomyocytes [1]: not mimicked
